Assay [1] concerns magnesium-dependent phosphatidate phosphohydrolase-1. The note with it: off-target; cited from earlier work.
Assay [2] concerns experimental autoimmune encephalomyelitis. The note with it: cited from earlier work.
Assay [3] addresses T1, human GIVA cPLA2 (Homo sapiens, UniProt P47712).
T1 sequence (P47712 1-749): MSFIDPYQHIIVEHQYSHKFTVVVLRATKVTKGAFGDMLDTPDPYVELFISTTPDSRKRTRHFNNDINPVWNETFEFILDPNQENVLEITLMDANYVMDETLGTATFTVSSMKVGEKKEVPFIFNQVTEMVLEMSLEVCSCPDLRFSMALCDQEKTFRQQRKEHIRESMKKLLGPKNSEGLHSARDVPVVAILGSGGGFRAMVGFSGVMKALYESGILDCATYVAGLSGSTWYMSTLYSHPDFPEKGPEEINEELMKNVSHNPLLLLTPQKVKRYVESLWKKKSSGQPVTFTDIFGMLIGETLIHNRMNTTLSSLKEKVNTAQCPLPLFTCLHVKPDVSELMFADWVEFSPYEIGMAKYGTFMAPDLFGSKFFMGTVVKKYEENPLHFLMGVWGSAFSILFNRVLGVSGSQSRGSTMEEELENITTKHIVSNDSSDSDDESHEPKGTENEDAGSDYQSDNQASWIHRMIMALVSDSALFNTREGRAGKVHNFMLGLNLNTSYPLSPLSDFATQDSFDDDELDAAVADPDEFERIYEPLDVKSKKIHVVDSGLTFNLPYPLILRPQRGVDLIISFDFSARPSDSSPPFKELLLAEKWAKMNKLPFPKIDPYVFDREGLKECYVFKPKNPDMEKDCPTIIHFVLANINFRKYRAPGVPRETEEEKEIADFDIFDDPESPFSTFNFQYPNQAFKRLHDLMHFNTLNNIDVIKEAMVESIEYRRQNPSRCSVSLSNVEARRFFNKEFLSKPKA
The conditions noted are these: 0.091 mol fraction; reference inhibitor; cited from earlier work.

Assay [4] has as its target T1, human GIVA cPLA2. The assay is described as follows: mixed micelle modified Dole assay, GIVA cPLA2. Type of assay: biochemical.
For another assay, the target named is T2, human GV sPLA2 (Homo sapiens, UniProt P39877).
T2 sequence (P39877 21-138): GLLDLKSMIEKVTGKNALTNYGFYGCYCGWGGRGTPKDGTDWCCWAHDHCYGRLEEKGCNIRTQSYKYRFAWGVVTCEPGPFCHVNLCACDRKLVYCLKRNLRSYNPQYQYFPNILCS
The assay is described as follows: mixed micelle modified Dole assay, GV sPLA2. The class given is biochemical.

The text below walks through data of PMC5291822 (Bioorganic & medicinal chemistry, 2016).

On to `O=C1O/C(=C/Br)CCC1c1cccc2ccccc12` (centres unmarked) [BEL, Bromoenol lactone], for which the “inhibition of magnesium-dependent phosphatidate phosphohydrolase-1 (in words)” value in assay [1] is “able to inhibit”.

On to `O=C(CCCCc1ccccc1)C(F)(F)C(F)(F)F` [FKGK11], for which the “clinical severity and progression of experimental autoimmune encephalomyelitis” value in assay [2] is “strong reduction in the clinical severity and progression”. In addition, at human GIVA cPLA2 [3], the “% Inhbition GIVA cPLA2” value was “N.D.[17] (N.D. signifies compounds with less than 25% inhibition (or no detectable inhibition).)”.

On to `CCCC[C@H](NC(=O)C(=O)CCCCc1ccc(OC)cc1)C(=O)NCC(=O)OC(C)(C)C` [compound 12c, (S)-tert-Butyl 2-(2-(6-(4-methoxyphenyl)-2-oxohexanamido)hexanamido)acetate], for which the “inhibition of GIVA cPLA2 (in words)” value at human GIVA cPLA2 [4] was “weak inhibition”. Besides, the “inhibition of GV sPLA2 (in words)” value against human GV sPLA2 is “weak inhibition”.
